Legend:
[1] = CLint estimates using human liver microsomes (Method 4); format: in vitro ADME; settings: pH 7.4, 1 μM compound, read-out: Mics - CLint (HLM CLint)
How it was run: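 Compound at 1 μM (0.1% DMSO) incubated with human liver microsomes (0.5 mg protein/mL) in 0.1 M phosphate pH 7.4 at 37 °C, started with 1 mM NADPH. Samples taken 2–50 min, quenched in methanol, measured by LC/MS/MS (MRM). Half-life and CLint derived from the slope of ln peak area versus time.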

Wee-1 kinase = molecular target: T1, Wee-1 kinase (Homo sapiens, UniProt P30291); assay: Measurement of Wee-1 kinase activity (ADP-Glo luminescent kit); format: biochemical
T1 construct: purchased Invitrogen PV3817
T1 sequence (P30291 whole entry): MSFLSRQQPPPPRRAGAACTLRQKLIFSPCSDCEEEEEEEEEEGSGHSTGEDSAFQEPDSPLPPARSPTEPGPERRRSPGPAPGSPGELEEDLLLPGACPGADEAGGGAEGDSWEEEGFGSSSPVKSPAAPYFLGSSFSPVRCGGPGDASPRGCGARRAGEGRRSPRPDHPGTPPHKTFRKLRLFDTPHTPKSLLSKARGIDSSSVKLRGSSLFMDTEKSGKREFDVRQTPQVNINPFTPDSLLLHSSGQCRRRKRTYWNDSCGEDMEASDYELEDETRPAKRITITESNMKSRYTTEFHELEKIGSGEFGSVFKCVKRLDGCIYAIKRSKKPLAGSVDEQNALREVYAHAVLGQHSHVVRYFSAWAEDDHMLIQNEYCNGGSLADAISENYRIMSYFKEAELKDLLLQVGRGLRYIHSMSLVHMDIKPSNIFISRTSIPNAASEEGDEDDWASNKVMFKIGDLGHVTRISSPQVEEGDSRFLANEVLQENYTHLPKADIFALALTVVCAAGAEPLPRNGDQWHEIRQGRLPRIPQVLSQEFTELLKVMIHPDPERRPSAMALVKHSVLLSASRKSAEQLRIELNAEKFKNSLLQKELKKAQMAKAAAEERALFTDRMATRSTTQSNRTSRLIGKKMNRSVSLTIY
How it was run: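 Activated Wee-1 was pre-incubated 30 min at RT with compound in 40 mM Tris-HCl, 20 mM MgCl2, 0.1 mg/mL BSA and 2 mM DTT. The reaction was started with an aliquot of 2.0 μg/mL poly(Lys,Tyr 4:1) plus 30 μM ATP and run 1 h at RT. ADP-Glo luminescence gave IC50 by non-linear fit.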

[2] = system: phospho-cdc2 (Tyr15) in HT-29 cells; assay: Effect on Cdc2 phosphorylation at Tyr15, Cell-Based ELISA Base Kit (Method 3); settings: Homo sapiens, HT-29, 8 h, eight hours incubation, normalized to total cdc2, read-out: HT29 pCDC2 method 3
Procedure: Method 3: Determining the Effect of Compounds on the Cdc2 phosphorylation at Tyr15, using a Cell-Based ELISA Base Kit (R&D Systems, KCB001)
The colorectal cancer cell line, HT-29 was purchased from the ATCC and maintained in McCoy's 5 A medium (Gibco®, Life technologies) supplemented with 10% Foetal Calf Serum (FCS).
The cells were trypsinised and counted, 100 μL of 8000 cells was seeded into each well of a clear-bottom black 96-well microplate and incubated overnight to allow adherence to the surface, at 37° C. and 5% CO2 in a cell culture incubator.
Test compounds were formulated in DMSO and diluted in cell culture medium supplemented with FCS. Grow medium was removed from cells and medium containing compounds dilutions was added to each well. The plate was returned to the incubator for an additional eight hours of incubation at 37° C. and 5% CO2.
Post incubation cells were fixed by replacing the compounds supplemented medium with 100 μL of 4% formaldehyde in 1× phosphate buffered saline (PBS), for 20 minutes at room temperature. Formaldehyde solution was removed and cells were washed three times with PBS. The Cell-Based ELISA assay (R&D Systems) was carried out immediately after cell fixation or the plate was sealed and fixed cells were stored in PBS at 4° C. until required (no more than two weeks).
To continue the assay, PBS was removed and cells were washed 3 times for 5 minutes with 200 μL of 1× wash buffer. Each wash step was carried out with gentle shaking. Following washes, 100 μL of 0.6% H2O2 in 1× wash buffer (quenching buffer) was added, plate was sealed and incubated for 20 minutes at room temperature. Post incubation cells were washes 3 times for 5 minutes with 200 μL of 1× wash buffer, with gentle shaking. 100 μL of blocking buffer was added to each well, the plate was re-sealed and incubated at room temperature for 1 h.
After blocking, cells were washed as described above. A primary antibody mixture was prepared by mixing the two primary antibodies, a rabbit monoclonal antibody for phospho-cdc2 (Tyr15) (Cell Signaling, #4539) and mouse monoclonal antibody for total cdc2 p34 (Santa Cruz Biotechnology, sc-54), diluted 1:25 and 1:50 in blocking buffer, respectively. 60 μL of primary antibody mixture was added to each well, the plate was sealed and incubated overnight at 4° C.
The primary antibodies were removed and cells were washed as previously described. 100 μL of secondary antibody mixture, containing horseradish-peroxidase (HRP)-conjugated goat anti-rabbit IgG and alkaline phosphatase (AP)-conjugated goat anti-mouse IgG, diluted 1:100 in blocking buffer, was added to each test well. The plate was re-sealed and incubated for 2 hours at room temperature.
The secondary antibodies were removed and cells washed 2 times with wash buffer, followed by 2 washes with PBS. Each wash step was carried out for 5 minutes with gentle shaking. PBS was removed and 75 μL of fluorogenic substrate for HRP (substrate F1) added to each well. The plate was sealed and incubated for 1 h at room temperature, in the dark. 75 μL of fluorogenic substrate for AP (substrate F2) was added directly to each well, plate re-sealed and incubated for additional 40 minutes at room temperature, protected from direct light.
Following incubation fluorescence from each well was read at 600 nm (signal from substrate 1, phosphorylated protein) and then at 450 nm (signal from substrate 2, total protein).
The percentage of phospho-cdc2 was calculated compared to DMSO control, normalized to the total cdc2 and plotted versus the concentration of inhibitor, using GraphPad Prism. Data was fitted using a non-linear regression analysis and EC50 values generated.

Row | Structure (SMILES) | microsomal CLint at 1 μM [1] [µL/min/mg] | IC50 (Wee-1 kinase) [nM] | EC50 [2] [nM]
1 | [2H]C([2H])([2H])N1CN(c2c(Cl)cccc2Cl)C(=O)c2cnc(Nc3ccc(N4CCN[C@H](C)C4)cc3)nc21 [Example 78, (R)-3-(2,6-dichlorophenyl)-1-d3-methyl-7-((4-(3-methylpiperazin-1-yl)phenyl)amino)-2,3-dihydropyrimido[4,5-d]pyrimidin-4(1H)-one] | ≤ 15 | ≤ 10 | 100 to 1000
2 | CNCc1cc(Nc2ncc3c(n2)N(C)CN(c2c(Cl)cccc2Cl)C3=O)ccc1N1C[C@@H](C)O[C@@H](C)C1 [Example 148, 3-(2,6-dichlorophenyl)-7-((4-((2S,6R)-2,6-dimethylmorpholino)-3-((methylamino)methyl)phenyl)amino)-1-methyl-2,3-dihydropyrimido[4,5-d]pyrimidin-4(1H)-one] | 15 to 50 | ≤ 10 | 100 to 1000
3 | CC(C)N1CCN(c2ccc(Nc3ncc4c(n3)N(C)CN(c3c(F)cccc3Cl)C4=O)cc2CO)CC1 [Example 89, 3-(2-chloro-6-fluorophenyl)-7-((3-(hydroxymethyl)-4-(4-isopropylpiperazin-1-yl)phenyl)amino)-1-methyl-2,3-dihydropyrimido[4,5-d]pyrimidin-4(1H)-one] | ≤ 15 | ≤ 10 | 100 to 1000
4 | C[C@@H]1CN(c2ccc(Nc3ncc4c(n3)N(C)CN(c3c(Cl)cccc3Cl)C4=O)cc2CO)CCN1 [Example 38, (R)-3-(2,6-dichlorophenyl)-7-((3-(hydroxymethyl)-4-(3-methylpiperazin-1-yl)phenyl)amino)-1-methyl-2,3-dihydropyrimido[4,5-d]pyrimidin-4(1H)-one] | ≤ 15 | ≤ 10 | 100 to 1000
5 | CNCc1cc(Nc2ncc3c(n2)N(C)CN(c2c(Cl)cccc2Cl)C3=O)ccc1N1CCCC1 [Example 137, 3-(2,6-dichlorophenyl)-1-methyl-7-((3-((methylamino)methyl)-4-(pyrrolidin-1-yl)phenyl)amino)-2,3-dihydropyrimido[4,5-d]pyrimidin-4(1H)-one] | ≥ 50 | 10 to 100 | 100 to 1000
6 | C[C@@H]1CN(c2ccc(Nc3ncc4c(n3)N(C)CN(c3c(Cl)cccc3Cl)C4=O)cc2)C[C@H](C)N1 [Example 83, 3-(2,6-dichlorophenyl)-7-((4-((3R,5S)-3,5-dimethylpiperazin-1-yl)phenyl)amino)-1-methyl-2,3-dihydropyrimido[4,5-d]pyrimidin-4(1H)-one] | 15 to 50 | ≤ 10 | 100 to 1000
7 | COC[C@@H]1CN(c2ccc(Nc3ncc4c(n3)N(C)CN(c3c(Cl)cccc3Cl)C4=O)cc2)CCN1 [Example 61, (S)-3-(2,6-dichlorophenyl)-7-((4-(3-(methoxymethyl)piperazin-1-yl)phenyl)amino)-1-methyl-2,3-dihydropyrimido[4,5-d]pyrimidin-4(1H)-one] | ≤ 15 | 10 to 100 | 100 to 1000
8 | CNCC(=O)N1CCN(c2ccc(Nc3ncc4c(n3)N(C)CN(c3c(Cl)cccc3Cl)C4=O)cc2)CC1 [Example 124, 3-(2,6-dichlorophenyl)-1-methyl-7-((4-(4-(2-(methylamino)acetyl)piperazin-1-yl)phenyl)amino)-2,3-dihydropyrimido[4,5-d]pyrimidin-4(1H)-one] | ≤ 15 | ≤ 10 | 100 to 1000
9 | C[C@@H]1CN(c2ccc(Nc3ncc4c(n3)N(C)CN(c3c(Cl)cccc3Cl)C4=O)cc2C(O)C(F)F)CCN1 (stereo partly drawn) [Example 134, 3-(2,6-dichlorophenyl)-7-((3-(2,2-difluoro-1-hydroxyethyl)-4-((R)-3-methylpiperazin-1-yl)phenyl)amino)-1-methyl-2,3-dihydropyrimido[4,5-d]pyrimidin-4(1H)-one] | ≤ 15 | ≤ 10 | 100 to 1000
10 | CN1CN(c2c(Cl)cccc2Cl)C(=O)c2cnc(Nc3ccc(N4CCNC[C@H]4CO)cc3)nc21 [Example 127, (S)-3-(2,6-dichlorophenyl)-7-((4-(2-(hydroxymethyl)piperazin-1-yl)phenyl)amino)-1-methyl-2,3-dihydropyrimido[4,5-d]pyrimidin-4(1H)-one] | ≤ 15 | ≤ 10 | ≥ 1000
11 | C[C@@H]1CN(c2ccc(Nc3ncc4c(n3)N(C)CN(c3c(Cl)cccc3Cl)C4=O)cc2CN(C)C)C[C@H](C)O1 [Example 151, 3-(2,6-dichlorophenyl)-7-((3-((dimethylamino)methyl)-4-((2S,6R)-2,6-dimethylmorpholino)phenyl)amino)-1-methyl-2,3-dihydropyrimido[4,5-d]pyrimidin-4(1H)-one] | ≥ 50 | ≤ 10 | 100 to 1000
12 | CN(C)Cc1cc(Nc2ncc3c(n2)N(C)CN(c2c(Cl)cccc2Cl)C3=O)ccc1N1CCOCC1 [Example 154, 3-(2,6-dichlorophenyl)-7-((3-((dimethylamino)methyl)-4-morpholinophenyl)amino)-1-methyl-2,3-dihydropyrimido[4,5-d]pyrimidin-4(1H)-one] | 15 to 50 | ≤ 10 | 100 to 1000
13 | COC[C@H]1CN(c2ccc(Nc3ncc4c(n3)N(C)CN(c3c(F)cccc3Cl)C4=O)cc2)CCN1 [Example 126, (R)-3-(2-chloro-6-fluorophenyl)-7-((4-(3-(methoxymethyl)piperazin-1-yl)phenyl)amino)-1-methyl-2,3-dihydropyrimido[4,5-d]pyrimidin-4(1H)-one] | ≤ 15 | 10 to 100 | ≥ 1000
14 | CN1CCC(c2ccc(Nc3ncc4c(n3)N(C)CN(c3c(Cl)cccc3Cl)C4=O)cc2)CC1 [Example 95, 3-(2,6-dichlorophenyl)-1-methyl-7-((4-(1-methylpiperidin-4-yl)phenyl)amino)-2,3-dihydropyrimido[4,5-d]pyrimidin-4(1H)-one] | ≤ 15 | ≤ 10 | 100 to 1000
15 | C[C@@H]1CN(c2ccc(Nc3ncc4c(n3)N(C)CN(c3c(Cl)cccc3Cl)C4=O)cc2CO)CCN1C [Example 46, (R)-3-(2,6-dichlorophenyl)-7-((4-(3,4-dimethylpiperazin-1-yl)-3-(hydroxymethyl)phenyl)amino)-1-methyl-2,3-dihydropyrimido[4,5-d]pyrimidin-4(1H)-one] | ≤ 15 | ≤ 10 | 100 to 1000
16 | CN1CCC(c2ccc(Nc3ncc4c(n3)N(C)CN(c3c(Cl)cccc3Cl)C4=O)cc2CO)CC1 [Example 165, 3-(2,6-dichlorophenyl)-7-((3-(hydroxymethyl)-4-(1-methylpiperidin-4-yl)phenyl)amino)-1-methyl-2,3-dihydropyrimido[4,5-d]pyrimidin-4(1H)-one] | ≤ 15 | ≤ 10 | 100 to 1000
17 | Cc1cc(Nc2ncc3c(n2)N(C)CN(c2c(F)cccc2Cl)C3=O)ccc1N1CCNCC1 [Example 55, 3-(2-chloro-6-fluorophenyl)-1-methyl-7-((3-methyl-4-(piperazin-1-yl)phenyl)amino)-2,3-dihydropyrimido[4,5-d]pyrimidin-4(1H)-one] | ≤ 15 | ≤ 10 | 100 to 1000

— patent US9850247B2 (Almac Discovery Limited, priority 2013, dated 2017)
